How the values were obtained:
[1] = in vivo; cited from earlier work
hypoxic-ischemic injury = conditions: neonatal rat, cited from earlier work
[2] = cited from earlier work
inflammatory cytokines = test: Cytokine array (RodentMAP) on plasma in paclitaxel-induced model of inflammation; format: in vivo, mice; conditions: compared to control; for macrophage-derived chemokine [MDC/CCL22] level: paclitaxel alone
Method: FIG. 1. Using a drug induced model of inflammation, a cytokine array was used to measure inflammatory cytokines, immune system alteration and the ability of our treatment to attenuate and re-establish normal status. Plasma was isolated from mice treated with the different treatments (control, paclitaxel [PTX, 40 mg/kg], NU.001[CS] and PTX+NU.001[PTX+CS]). * indicates p<0.05 and ** indicates p<0.01, one-way ANOVA or t-test, compared to control. # indicates p<0.05 and ## indicates p<0.01, one-way ANOVA or t-test, compared to PTX.
FIG. 2. NU.001 reduces inflammatory signals in a drug-induced model of inflammation. Animals received oral delivery of NU.001 for 3-4 weeks or a control diet. The microtubule stabilizing agent paclitaxel [40 mg/kg cumulative] was administered to induce inflammation. A cytokine array was used to measure inflammation and immune system status and assess the ability of NU.001 to attenuate or re-establish normal cytokine levels. Plasma was isolated from mice treated with the different treatments (control, paclitaxel, NU.001, and paclitaxel+NU.001). […] Treatment composition is as follows: [1] Control=55% carbohydrates, 30% proteins, 15% fat, [2]
FIGS. 4A-4B. NU.001 increases levels of Leukemia inhibitory factor [LIF] and CCL22. A. After being fed for 3-4 weeks with control diet or NU.001 diet, plasma was isolated for cytokine screening. […] LIF has been proposed to prevent or treat peripheral neuropathy. *, p <0.05, t-test.
The chemotherapeutic agent paclitaxel was used to induce inflammation. Animals were stressed by treating with paclitaxel [40 mg/kg cumulative], resulting in changes in a number of cytokines and related molecules involved in inflammation processes. Animals were treated with NU.001 for 3-4 weeks and blood was taken for plasma isolation. A panel of cytokines was screened using RodentMAP [Myriad/RBM].
Levels of Leukemia inhibitory factor (LIF) were compared in animals treated with control diet or NU.001 diets. After 4 weeks of treatment, blood was taken and plasma was isolated to measure levels of cytokines. […]

[3] = oral doses as high as 500 mg/kg, rodents; cited from earlier work
[4] = 500 mg/kg/day, divided dosage, 13 weeks, pre-fed dogs; cited from earlier work

C[S+]([O-])CCCCN=C=S (stereo not drawn) [SFN, sulforaphane]
terminal elimination phase [1]: long
time to peak plasma levels [1]: ≤ 2 h
infarct ratio (hypoxic-ischemic injury; at 24 hours after hypoxic ischemia): reduced
expression of Nrf2 antioxidative transcription factor in the brain (hypoxic-ischemic injury; hypoxic-ischemic injury): increased
number of apoptotic cells (hypoxic-ischemic injury; hypoxic-ischemic injury): significantly decreased
safety of dose ([2]; 100 mg SFN from oral intake of 68 grams of broccoli sprouts): safe non-toxic
adverse effects of administration in humans ([2]; SFN or SFN-enriched dietary origin items such as broccoli sprouts): not demonstrated any significant adverse effects

CC(=O)O[C@H]1C(=O)[C@@]2(C)[C@H]([C@H](OC(=O)c3ccccc3)[C@]3(O)C[C@H](OC(=O)[C@H](O)[C@@H](NC(=O)c4ccccc4)c4ccccc4)C(C)=C1C3(C)C)[C@]1(OC(C)=O)CO[C@@H]1C[C@@H]2O [paclitaxel]
inflammation related cytokines (inflammatory cytokines; paclitaxel 40 mg/kg cumulative alone): up-regulated
macrophage-derived chemokine [MDC/CCL22] level (inflammatory cytokines): Lower levels
macrophage-derived chemokine [MDC/CCL22] level (inflammatory cytokines; listed as Paclitaxel): decrease

epigallocatechin-3-gallate [EGCG]
genotoxicity and short term toxicity [3]: no genotoxic or short term toxicity
adverse events or toxicity [4]: no adverse events or toxicity

From patent publication US20180133194A1, “METHOD OF TREATING INFLAMMATION USING NATURAL COMPOUNDS AND/OR DIET” (UNIVERSITY OF FLORIDA RESEARCH FOUNDATION, INCORPORATED, priority 2015, published 2018)
